# According to US20260274895A1, “DE NOVO DESIGNED MEMBRANE-TRAVERSING AND ORALLY BIOAVAILABLE MACROCYCLES” (UNIVERSITY OF WASHINGTON, priority 2022, published 2026):
# Where a SMILES comes first, the peptide text is derived from it. [ ]: non-standard residue; d: D form. NMeF = CN[C@@H](Cc1ccccc1)C(=O)O; dNMeF = CN[C@H](Cc1ccccc1)C(=O)O; NMeL = CN[C@@H](CC(C)C)C(=O)O; dNMeL = CN[C@H](CC(C)C)C(=O)O; NMeV = CN[C@H](C(=O)O)C(C)C; NMeA = CN[C@@H](C)C(=O)O; Nle = CCCC[C@H](N)C(=O)O; dNMeA = CN[C@H](C)C(=O)O; Aib = CC(C)(N)C(=O)O
# Conditions: PAMPA
row,SMILES,PAMPA_Papp_Avg (apparent permeability)
1,"CC[C@H](C)[C@@H]1NC(=O)[C@@H](CC(C)C)N(C)C(=O)[C@@H]2CCCN2C(=O)[C@H](C(C)C)NC(=O)C(C)(C)NC(=O)[C@H](CC(C)C)NC(=O)C(C)(C)NC(=O)[C@@H]2CCCN2C(=O)[C@H]2CCCN2C1=O [Design D9.1, pPBLBVP*lI] (cyclo([Aib]L[Aib]VP[dNMeL]I[dP]P))",1.59 ×10⁻⁶ cm/s
2,"CC(C)C[C@@H]1C(=O)N(C)[C@H](Cc2ccccc2)C(=O)N(C)[C@@H](CC(C)C)C(=O)N[C@H](C(C)C)C(=O)N[C@H](C)C(=O)N2CCC[C@@H]2C(=O)N2CCC[C@H]2C(=O)N[C@H](C)C(=O)N1C [Design D8.20, Pa*l*f*Lvap] (cyclo([dA][dNMeL][dNMeF][NMeL][dV][dA][dP]P))",1.08 ×10⁻⁶ cm/s
3,"CC(C)C[C@@H]1NC(=O)[C@@H]2CCCN2C(=O)[C@H]2CCCN2C(=O)[C@H](CC(C)C)NC(=O)[C@H](C)N(C)C(=O)[C@H]2CCCN2C(=O)[C@@H](CC(C)C)NC1=O [Design D7.6, lp*ALpPL] (cyclo(L[dL][dP][NMeA]L[dP]P))",3.62 ×10⁻⁶ cm/s
4,"CC(C)[C@@H]1C(=O)N[C@@H](Cc2ccccc2)C(=O)N2CCC[C@H]2C(=O)N(C)[C@H](Cc2ccccc2)C(=O)N[C@H](C)C(=O)N2CCC[C@H]2C(=O)N1C (single isomer, unassigned) [Design D6.8.p2, *faP*vFP]",1.77 ×10⁻⁶ cm/s
5,"CC(C)C[C@@H]1NC(=O)[C@H]2CCCN2C(=O)[C@@H]2CCCN2C(=O)[C@H](CC(C)C)NC(=O)[C@@H](CC(C)C)NC(=O)[C@@H](C)N(C)C(=O)[C@@H](C)N(C)C(=O)[C@@H](C(C)C)NC1=O [Design D8.6, LPpLv*a*al] (cyclo(LP[dP]L[dV][dNMeA][dNMeA][dL]))",3.35 ×10⁻⁶ cm/s
6,"CC[C@H](C)[C@@H]1NC(=O)[C@H](Cc2ccccc2)N(C)C(=O)[C@H]2CCCN2C(=O)[C@H]([C@@H](C)CC)NC(=O)[C@H](C(C)C)NC(=O)[C@@H](C)NC(=O)[C@H]2CCCN2C1=O [Design D7.9, VIp*FIpa] (cyclo(I[dP][NMeF]I[dP][dA]V))",7.09 ×10⁻⁶ cm/s
7,"CC(C)C[C@H]1C(=O)N2CCC[C@@H]2C(=O)N[C@@H](Cc2ccccc2)C(=O)N2CCC[C@H]2C(=O)N[C@H](C(C)C)C(=O)N[C@H](Cc2ccccc2)C(=O)N1C (single isomer, unassigned) [Design D6.9.p2, vf*LpFP]",6.77 ×10⁻⁶ cm/s
8,"CC[C@@H](C)[C@H]1NC(=O)[C@@H](CC(C)C)NC(=O)C(C)(C)NC(=O)[C@@H]2CCCN2C(=O)[C@@H]([C@H](C)CC)NC(=O)[C@@H](CC(C)C)NC(=O)C(C)(C)NC(=O)[C@@H]2CCCN2C1=O [Design D8.2, PBliPBLi] (cyclo([Aib][dL][dI]P[Aib][dL][dI]P))",7.49 ×10⁻⁶ cm/s
9,"CC(C)C[C@@H]1NC(=O)[C@H](CC(C)C)N(C)C(=O)[C@H]2CCCN2C(=O)[C@@H](C)NC(=O)[C@@H](C)N(C)C(=O)[C@@H](C(C)C)NC(=O)[C@@H](CC(C)C)N(C)C(=O)[C@@H]2CCCN2C1=O [Design D8.30, ap*LLP*lv*a] (cyclo(LP[dNMeL][dV][dNMeA][dA][dP][NMeL]))",4.32 ×10⁻⁶ cm/s
10,"CC(C)C[C@H]1NC(=O)[C@@H]2CCCN2C(=O)[C@@H]2CCCN2C(=O)[C@@H](C)NC(=O)[C@@H](Cc2ccccc2)N(C)C(=O)[C@H]2CCCN2C1=O [Design D6.4, p*faPPl] (cyclo(PP[dL][dP][dNMeF][dA]))",13.9 ×10⁻⁶ cm/s
11,"CC[C@H](C)[C@@H]1NC(=O)[C@H]2CCCN2C(=O)[C@@H]2CCCN2C(=O)[C@H](CC(C)C)NC(=O)[C@@H](C(C)C)NC(=O)[C@@H](CC(C)C)N(C)C(=O)[C@@H]2CCCN2C1=O [Design D7.1, P*lvLPpI] (cyclo(IP[dNMeL][dV]LP[dP]))",2.93 ×10⁻⁶ cm/s
12,"CC(C)C[C@@H]1C(=O)N[C@@H](C(C)C)C(=O)N[C@@H](C)C(=O)N2CCC[C@H]2C(=O)N2CCC[C@@H]2C(=O)N[C@@H](C(C)C)C(=O)N[C@@H](C)C(=O)N(C)[C@@H](CC(C)C)C(=O)N1C [Design D8.22, APpVA*L*lV] (cyclo(A[NMeL][dNMeL]VAP[dP]V))",0.215 ×10⁻⁶ cm/s

# Continued, values first:
row,PAMPA_Papp_Avg (apparent permeability),SMILES
1,4.23 ×10⁻⁶ cm/s,"C[C@H]1NC(=O)[C@@H](Cc2ccccc2)NC(=O)[C@H](Cc2ccccc2)N(C)C(=O)[C@H](Cc2ccccc2)N(C)C(=O)[C@@H](Cc2ccccc2)NC(=O)[C@H]2CCCN2C(=O)CNC(=O)[C@@H](C)NC(=O)[C@@H]2CCCN2C(=O)[C@@H](Cc2ccccc2)NC1=O [Design D10.62, aGpf*F*FfafP] (cyclo(G[dP][dF][NMeF][NMeF][dF][dA][dF]P[dA]))"
2,3.48 ×10⁻⁶ cm/s,"CC[C@@H](C)[C@H]1NC(=O)[C@@H]2CCCN2C(=O)[C@@H]([C@H](C)CC)NC(=O)[C@@H](C)N(C)C(=O)[C@H](CC(C)C)NC(=O)[C@@H](Cc2ccccc2)NC(=O)[C@H](CC(C)C)N(C)C(=O)[C@H]2CCCN2C(=O)[C@@H](CC(C)C)NC(=O)[C@H](CC(C)C)NC(=O)[C@H]2CCCN2C1=O [Design D11.1, ipLlp*LfL*aiP] (cyclo(L[dL][dP][NMeL][dF]L[dNMeA][dI]P[dI][dP]))"
3,0.654 ×10⁻⁶ cm/s,"CC[C@@H](C)[C@H]1NC(=O)[C@@H](Cc2ccccc2)NC(=O)[C@H](CC(C)C)NC(=O)[C@@H](C)N(C)C(=O)[C@@H](CC(C)C)NC(=O)[C@H](CC(C)C)NC(=O)[C@H]2CCCN2C(=O)[C@@H]2CCCN2C(=O)[C@@H](C)NC(=O)[C@H]2CCCN2C1=O [Design D10.37, l*aLfipaPpL] (cyclo(L[dF][dI][dP][dA]P[dP]L[dL][dNMeA]))"
4,0.789 ×10⁻⁶ cm/s,"CC[C@H](C)[C@@H]1NC(=O)[C@H](C(C)C)N(C)C(=O)[C@H]2CCCN2C(=O)[C@H]([C@@H](C)CC)NC(=O)[C@@H](CC(C)C)N(C)C(=O)[C@@H](C)NC(=O)[C@@H]2CCCN2C(=O)[C@H]2CCCN2C(=O)[C@H](CC(C)C)NC(=O)[C@@H](Cc2ccccc2)NC(=O)[C@H](CC(C)C)NC(=O)[C@H]2CCCN2C1=O [Design D12.3, p*VIpLfLpPa*lI] (cyclo([dA][dNMeL]I[dP][NMeV]I[dP]L[dF]L[dP]P))"
5,0.238 ×10⁻⁶ cm/s,"CCCC[C@@H]1NC(=O)[C@H]2CCCN2C(=O)[C@H](C(C)C)NC(=O)[C@@H](CC(C)C)N(C)C(=O)[C@H](Cc2ccccc2)NC(=O)[C@H](CC(C)C)NC(=O)[C@@H](CC(C)C)N(C)C(=O)[C@@H]2CCCN2C(=O)[C@@H](CC(C)C)NC1=O [Design D9.40, pMlP*lLF*lV] (cyclo(F[dNMeL]V[dP][Nle][dL]P[dNMeL]L))"
6,0.49 ×10⁻⁶ cm/s,"CC(C)[C@@H]1NC(=O)[C@H]2CCCN2C(=O)[C@@H](C(C)C)NC(=O)[C@@H]2CCCN2C(=O)[C@H](Cc2ccccc2)NC(=O)[C@H](Cc2ccccc2)NC(=O)[C@H]2CCCN2C(=O)[C@@H](C(C)C)NC(=O)[C@@H]2CCCN2C(=O)[C@H](C(C)C)NC1=O [Design D10.27, PvpVVPvpFF] (cyclo(FFP[dV][dP]VVP[dV][dP]))"
7,1.27 ×10⁻⁶ cm/s,"CC(C)C[C@@H]1NC(=O)[C@@H](CC(C)C)N(C)C(=O)[C@@H](CC(C)C)N(C)C(=O)[C@@H](CC(C)C)N(C)C(=O)[C@H](CC(C)C)NC(=O)[C@@H]2CCCN2C(=O)[C@H]2CCCN2C(=O)[C@H](Cc2ccccc2)NC1=O [SEQ ID NO 47, FpPL*l*l*lL] (cyclo(L[dNMeL][dNMeL][dNMeL]LF[dP]P))"
8,9.02 ×10⁻⁶ cm/s,"CC[C@@H](C)[C@H]1NC(=O)[C@H](Cc2ccccc2)N(C)C(=O)[C@@H](CC(C)C)N(C)C(=O)[C@H](C(C)C)NC(=O)[C@H](C)NC(=O)[C@@H]2CCCN2C(=O)[C@H](CC(C)C)N(C)C(=O)[C@@H](Cc2ccccc2)N(C)C(=O)[C@H](C)N(C)C(=O)[C@H](C)N(C)C1=O [Design D10.56, *f*LPAV*l*Fi*A*A] (cyclo(AV[dNMeL][NMeF][dI][NMeA][NMeA][dNMeF][NMeL]P))"
9,1.63 ×10⁻⁶ cm/s,"CC[C@H](C)[C@@H]1NC(=O)[C@H](Cc2ccccc2)N(C)C(=O)[C@H](CC(C)C)N(C)C(=O)[C@@H](C(C)C)NC(=O)[C@@H](C)NC(=O)[C@@H]2CCCN2C(=O)[C@@H](CC(C)C)NC(=O)[C@@H]2CCCN2C(=O)[C@H](C)NC1=O [Design D9.6, Pav*L*FIAPl] (cyclo(AP[dL]P[dA][dV][NMeL][NMeF]I))"
10,2.27 ×10⁻⁶ cm/s,"CC(C)C[C@@H]1NC(=O)[C@@H](CC(C)C)NC(=O)[C@@H]2CCCN2C(=O)[C@@H](CC(C)C)NC(=O)[C@H](C)N(C)C(=O)[C@H](C)NC(=O)[C@H](CC(C)C)N(C)C(=O)[C@@H]2CCCN2C(=O)[C@H](CC(C)C)NC(=O)[C@H](CC(C)C)N(C)C1=O [Design D10.16, lL*LLP*LA*AlP] (cyclo(A[NMeA][dL]P[dL]L[NMeL]LP[NMeL]))"
11,1.76 ×10⁻⁶ cm/s,"CC(C)C[C@@H]1C(=O)N(C)[C@H](CC(C)C)C(=O)N2CCC[C@H]2C(=O)N[C@H](CC(C)C)C(=O)N2CCC[C@@H]2C(=O)N2CCC[C@@H]2C(=O)N(C)[C@H](CC(C)C)C(=O)N[C@H](Cc2ccccc2)C(=O)N[C@@H](C)C(=O)N1C [Design D9.18, A*l*lPlpp*lf] (cyclo(A[dNMeL][dNMeL]P[dL][dP][dP][dNMeL][dF]))"
12,1.48 ×10⁻⁶ cm/s,"CC[C@@H](C)[C@H]1NC(=O)[C@H]2CCCN2C(=O)[C@@H]2CCCN2C(=O)[C@@H](CC(C)C)NC(=O)[C@H](C)NC(=O)[C@@H](CC(C)C)N(C)C(=O)[C@@H](C)N(C)C(=O)[C@@H]2CCCN2C(=O)[C@@H]([C@H](C)CC)NC(=O)[C@@H](CC(C)C)N(C)C1=O [Design D10.39, P*a*lAlPpi*li] (cyclo(A[dL]P[dP][dI][dNMeL][dI]P[dNMeA][dNMeL]))"
13,0.184 ×10⁻⁶ cm/s,"CC(C)C[C@@H]1C(=O)N[C@@H](C)C(=O)N[C@H](CC(C)C)C(=O)N(C)[C@@H](C)C(=O)N2CCC[C@@H]2C(=O)N2CCC[C@@H]2C(=O)N2CCC[C@@H]2C(=O)N2CCC[C@H]2C(=O)N[C@H](C(C)C)C(=O)N(C)[C@@H](CC(C)C)C(=O)N1C [Design D10.28, l*ApppPv*L*lA] (cyclo([dV][NMeL][dNMeL]A[dL][NMeA][dP][dP][dP]P))"
14,4.78 ×10⁻⁶ cm/s,"CC[C@@H](C)[C@H]1NC(=O)[C@H](Cc2ccccc2)NC(=O)[C@@H](CC(C)C)N(C)C(=O)[C@@H]2CCCN2C(=O)[C@@H](C(C)C)NC(=O)[C@@H](C)N(C)C(=O)[C@H]2CCCN2C(=O)[C@@H](CC(C)C)NC(=O)[C@H](CC(C)C)NC(=O)[C@@H]2CCCN2C1=O [Design D10.30, P*lFiPLlp*av] (cyclo(F[dI]PL[dL][dP][dNMeA][dV]P[dNMeL]))"
